According to patent EP1077981B1, “NOVEL CEPHALOSPORIN COMPOUNDS, PROCESSES FOR PREPARATION THEREOF AND ANTIMICROBIAL COMPOSITIONS CONTAINING THE SAME” (LG CHEMICAL LIMITED, priority 1998, dated 1999):
Values after ≈ are worked out from the molar mass of the structure shown. Like-named read-outs stand apart in the source and are kept apart here.

Columns and labels:
[1] = Pharmacokinetic experiment (blood concentration by HPLC); type: in vivo, mice; conditions: male, mouse, blood, 20 mg/kg
Protocol: Test example 2: Pharmacokinetic experiment
Male mice, each of which has a body weight of […] were used in the present pharmacokinetic experiment. Test compounds were formulated into 1% of solution and then, the solution was administered by oral route and by injection with a dose of 20mg/kg, respectively. At the fixed interval of time after administration, blood was gathered from the mice. Concentrations of test compounds in blood were measured by HPLC quantitative analysis and based on the results, pharmacokinetic parameters were calculated.

[2] = system: Klebsiella aerogenes SHV-1 1976E; assay: MIC against standard strains (agar dilution); type: cell-based; conditions: Klebsiella aerogenes, 20 h
Protocol: (§1) Test example 1: Measurement of Minimum Inhibitory Concentration (MIC)
(§2) Specifically, test compounds were diluted by 2-fold dilution method and dispersed in Mueller-Hinton agar medium and then, 2µℓ of test strains were inoculated at a concentration of 10^7 cfu(colony forming unit)/mℓ on the medium and incubated for 20 hours at 37°C.

[3] = system: Staphylococcus aureus 6538p; assay: MIC against standard strains (agar dilution); type: cell-based; conditions: Staphylococcus aureus 6538p; Mueller-Hinton agar, 20 hours at 37°C; read-out: MIC
Protocol: as §1, §2

[4] = system: Pseudomonas aeruginosa 1912E; assay: MIC against standard strains (agar dilution); type: cell-based; conditions: Pseudomonas aeruginosa 1912E; Mueller-Hinton agar, 20 hours at 37°C; read-out: MIC
Protocol: as §1, §2

[5] = system: Staphylococcus epidermidi 887E; assay: MIC against standard strains (agar dilution); type: cell-based; conditions: Staphylococcus epidermidi 887E; Mueller-Hinton agar, 20 hours at 37°C; read-out: MIC
Protocol: as §1, §2

[6] = system: Klebsiella aerogenes K1+ 1082E; assay: MIC against standard strains (agar dilution); type: cell-based; conditions: Klebsiella aerogenes K1+ 1082E; Mueller-Hinton agar, 20 hours at 37°C; read-out: MIC
Protocol: as §1, §2

[7] = system: Moraxella catarrhalis 25240; assay: MIC against standard strains (agar dilution); type: cell-based; conditions: Moraxella catarrhalis 25240; Mueller-Hinton agar, 20 hours at 37°C; read-out: MIC
Protocol: as §1, §2

[8] = system: Citrobacter diversus 2046E; assay: MIC against standard strains (agar dilution); type: cell-based; conditions: Citrobacter koseri; Citrobacter diversus 2046E; Mueller-Hinton agar, 20 hours at 37°C; read-out: MIC
Protocol: as §1, §2

Enterobacter cloacae P99 = assay: MIC against standard strains (agar dilution); type: cell-based; conditions: Enterobacter cloacae P99; Mueller-Hinton agar, 20 hours at 37°C; read-out: MIC
Protocol: as §1, §2

[9] = system: Escherichia coli TEM9 2639E; assay: MIC against standard strains (agar dilution); type: cell-based; conditions: TEM92639E; Escherichia coli TEM9 2639E; Mueller-Hinton agar, 20 hours at 37°C; read-out: MIC
Protocol: as §1, §2

[10] = system: Klebsiella pneumoniae 2011E; assay: MIC against standard strains (agar dilution); type: cell-based; conditions: Klebsiella pneumoniae 2011E; Mueller-Hinton agar, 20 hours at 37°C; read-out: MIC
Protocol: as §1, §2

[11] = system: Escherichia coli TEM1 1193E; assay: MIC against standard strains (agar dilution); type: cell-based; conditions: TEM11193E, 20 h
Protocol: as §1, §2

[12] = system: Serratia marcescens 1826E; assay: MIC against standard strains (agar dilution); type: cell-based; conditions: Serratia marcescens 1826E; Mueller-Hinton agar, 20 hours at 37°C; read-out: MIC
Protocol: as §1, §2

[13] = system: Morganella morganii 1375E; assay: MIC against standard strains (agar dilution); type: cell-based; conditions: Morganella morganii 1375E; Mueller-Hinton agar, 20 hours at 37°C; read-out: MIC
Protocol: as §1, §2

Escherichia coli 10536 = assay: MIC against standard strains (agar dilution); type: cell-based; conditions: Escherichia coli 10536; Mueller-Hinton agar, 20 hours at 37°C; read-out: MIC
Protocol: as §1, §2

[14] = system: Acinetobacter calcoaceticu 15473; assay: MIC against standard strains (agar dilution); type: cell-based; conditions: Acinetobacter calcoaceticu 15473; Mueller-Hinton agar, 20 hours at 37°C; read-out: MIC
Protocol: as §1, §2

[15] = system: Escherichia coli TEM3 3455E; assay: MIC against standard strains (agar dilution); type: cell-based; conditions: TEM33455E, 20 h
Protocol: as §1, §2

Escherichia coli 3190Y = assay: MIC against standard strains (agar dilution); type: cell-based; conditions: Escherichia coli, 3190Y, 20 h
Protocol: as §1, §2

Proteus vulgaris 6059 = assay: MIC against standard strains (agar dilution); type: cell-based; conditions: Proteus vulgaris 6059; Mueller-Hinton agar, 20 hours at 37°C; read-out: MIC
Protocol: as §1, §2

[16] = intravenous, Injection, read-out: average conc.
[17] = intravenous, Injection, read-out: blood concentration, mouse-1
[18] = intravenous, Injection, read-out: blood concentration, mouse-2
[19] = other: injection, Injection, read-out: average conc.
[20] = other: injection, Injection, read-out: blood concentration, mouse-1
[21] = other: injection, Injection, read-out: blood concentration, mouse-2
[22] = po, Oral administration, read-out: average conc.
[23] = po, Oral administration, read-out: blood concentration, mouse-1
[24] = po, Oral administration, read-out: blood concentration, mouse-2
[25] = po, Oral administration, read-out: blood concentration, mouse-3

CO/N=C(\C(=O)NC1C(=O)N2C(C(=O)O)=C(Sc3cc(N)nc(N)n3)CSC12)c1csc(N)n1 (stereo not drawn) [Compound No. 25, 7-[(Z)-2-(2-amino-thiazol-4-yl)-2-methoxyimino-acetylamino]-3-(2,6-diamino-pyrimidin-4-ylsulfanyl)-8-oxo-5-thia-1-azabicyclo[4,2,0]oct-2-ene-2-carboxylic acid] gave a concentration at 1 min [1, 16] of 96400 ng/mL, a concentration at 1 min [1, 17] of 120000 ng/mL and a concentration at 1 min [1, 18] of 72800 ng/mL. For the same compound, the concentration at 5 min [1, 16] was 41200 ng/mL, the concentration at 5 min [1, 17] was 51700 ng/mL and the concentration at 5 min [1, 18] was 30700 ng/mL. The concentration at 10 min [1, 16] was 29100 ng/mL, the concentration at 10 min [1, 17] was 37700 ng/mL and the concentration at 10 min [1, 18] was 20400 ng/mL. The concentration at 120 min [1, 16] was 1800 ng/mL, the concentration at 120 min [1, 17] was 2200 ng/mL and the concentration at 120 min [1, 18] was 1300 ng/mL. It also gave a concentration at 180 min [1, 16] of 800 ng/mL, a concentration at 180 min [1, 17] of 1100 ng/mL and a concentration at 180 min [1, 18] of 600 ng/mL. The concentration at 240 min [1, 16] was 400 ng/mL, the concentration at 240 min [1, 17] was 500 ng/mL and the concentration at 240 min [1, 18] was 300 ng/mL. The concentration at 20 min [1, 19] was 17100 ng/mL, the concentration at 20 min [1, 20] was 21600 ng/mL and the concentration at 20 min [1, 21] was 12700 ng/mL. For the same compound, the concentration at 40 min [1, 19] was 9800 ng/mL, the concentration at 40 min [1, 20] was 12200 ng/mL and the concentration at 40 min [1, 21] was 7300 ng/mL. For the same compound, the concentration at 60 min [1, 19] was 6100 ng/mL, the concentration at 60 min [1, 20] was 7600 ng/mL and the concentration at 60 min [1, 21] was 4600 ng/mL. The concentration at 90 min [1, 19] was 3300 ng/mL, the concentration at 90 min [1, 20] was 4300 ng/mL and the concentration at 90 min [1, 21] was 2400 ng/mL. It also gave a concentration at 5 min [1, 22] of 90 ng/mL, a concentration at 5 min [1, 23] of 70 ng/mL and a concentration at 5 min [1, 24] of 130 ng/mL. The concentration at 5 min [1, 25] was 60 ng/mL, the concentration at 10 min [1, 22] was 200 ng/mL and the concentration at 10 min [1, 23] was 160 ng/mL. It also gave a concentration at 10 min [1, 24] of 270 ng/mL, a concentration at 10 min [1, 25] of 140 ng/mL and a concentration at 20 min [1, 22] of 490 ng/mL. It also gave a concentration at 20 min [1, 23] of 280 ng/mL, a concentration at 20 min [1, 24] of 720 ng/mL and a concentration at 20 min [1, 25] of 270 ng/mL. For the same compound, the concentration at 40 min [1, 22] was 470 ng/mL, the concentration at 40 min [1, 23] was 270 ng/mL and the concentration at 40 min [1, 24] was 590 ng/mL. The concentration at 40 min [1, 25] was 350 ng/mL, the concentration at 60 min [1, 22] was 440 ng/mL and the concentration at 60 min [1, 23] was 160 ng/mL. For the same compound, the concentration at 60 min [1, 24] was 610 ng/mL, the concentration at 60 min [1, 25] was 260 ng/mL and the concentration at 90 min [1, 22] was 570 ng/mL. The concentration at 90 min [1, 23] was 70 ng/mL, the concentration at 90 min [1, 24] was 840 ng/mL and the concentration at 90 min [1, 25] was 290 ng/mL. The concentration at 120 min [1, 22] was 360 ng/mL, the concentration at 120 min [1, 23] was 60 ng/mL and the concentration at 120 min [1, 24] was 480 ng/mL. The concentration at 120 min [1, 25] was 240 ng/mL, the concentration at 180 min [1, 22] was 410 ng/mL and the concentration at 180 min [1, 23] was 60 ng/mL. The concentration at 180 min [1, 24] was 590 ng/mL, the concentration at 180 min [1, 25] was 240 ng/mL and the concentration at 240 min [1, 22] was 230 ng/mL. For the same compound, the concentration at 240 min [1, 23] was 60 ng/mL, the concentration at 240 min [1, 24] was 220 ng/mL and the concentration at 240 min [1, 25] was 230 ng/mL. For the same compound, the MIC [2] was 0.25 µg/mL (≈ 0.477 µM), the MIC [3] was 1 µg/mL (≈ 1.91 µM) and the MIC [4] was 16 µg/mL (≈ 30.6 µM). For the same compound, the MIC [5] was 8 µg/mL (≈ 15.3 µM), the MIC [6] was over 64 µg/mL and the MIC [7] was at most 0.008 µg/mL. The MIC [8] was over 64 µg/mL, the MIC (Enterobacter cloacae P99) was over 64 µg/mL and the MIC [9] was 32 µg/mL (≈ 61.1 µM). For the same compound, the MIC [10] was 0.5 µg/mL (≈ 0.955 µM), the MIC [11] was 0.25 µg/mL (≈ 0.477 µM) and the MIC [12] was 2 µg/mL (≈ 3.82 µM). For the same compound, the MIC [13] was 0.13 µg/mL (≈ 0.248 µM), the MIC (Escherichia coli 10536) was 0.063 µg/mL (≈ 0.12 µM) and the MIC [14] was 64 µg/mL (≈ 122 µM). The MIC [15] was 8 µg/mL (≈ 15.3 µM), the MIC (Escherichia coli 3190Y) was 0.031 µg/mL (≈ 0.0592 µM) and the MIC (Proteus vulgaris 6059) was 0.016 µg/mL (≈ 0.0306 µM).
